Entries after “also recorded” stand apart in the source; their conditions may differ. Like-named read-outs stand apart in the source and are kept apart here. Residues, ends and D or L forms follow the SMILES beside them. *: point of attachment. Cbz = O=C(OCc1ccccc1)*
Tests used:
NCI-H929 [1] = test: Annexin V / PI flow cytometry apoptosis assay, NCI-H929; type: cell-based, human; settings: for induction of apoptosis at 18 h: NCI-H929, 18 h, MAL3-101 10 μM, MG-132 0.1 μM, alone or combined
Protocol: Each experiment was repeated at least three times. Every experimental condition was repeated at least in triplicate wells for every experiment. For cell death assays, 10^6 MM cells were exposed to media or drug for the indicated incubation periods, washed with 1× phosphate-buffered saline (PBS), pH 7.4 (Invitrogen) and resuspended in 500 μL, binding buffer (Annexin V-PI detection kit (Immunotech/Beckman Coulter, Fullerton, Calif.), containing 1 μL, annexin V-fluorescein isothiocyanate (FITC) stock and 5 μL 20 μg/mL […] (PI) to determinate the phosphatidylserine (PS) exposure on the outer plasma membrane. After incubation for 15 minutes at room temperature in the dark, the specimens were quantified by dual-color flow cytometry, acquiring 10,000 events. Cells that were Annexin V-FITC+(with translocation of phosphatidylserine from the inner to the outer leaflet of the plasma membrane) and PI− (with intact cellular membrane) were considered as early apoptotic cells.
Apoptosis induction in control (DMSO-treated) or inhibitor treated cells was determined using an Annexin-V-FLUOS Staining Kit according to the manufacturer's instructions (Roche, Indianapolis, Ind.). Briefly, cells (1×10^5) were harvested at indicated time points after treatment, and Annexin V-fluorescein isothiocyanate (FITC) and propidium iodide (PI) were added to individual samples and incubated for 30 min in a dark environment. Fluorescence was analyzed by a FACSort flow cytometer (BD Biosciences, San Jose, Calif.) by acquiring 10,000 events per sample.

XBP-1 mRNA splicing = test: RT-PCR analysis of XBP-1 mRNA splicing (UPR) in NCI-H929; type: cell-based, human; settings: for XBP-1 mRNA splicing at early time points: NCI-H929, early time points (4 h), concentrations that gave synergistic cytotoxicity
Protocol: Total RNA was prepared from NCI-H929 and HEK293 cells using TRIzol reagent (Invitrogen, Carlsbad, Calif.) following exposure to MAL3-101, MG-132, and 17-AAG alone and in combination at the indicated time points. Tunicamycin was used at varying concentrations.
Total RNAs were used for the first-strand synthesis with the Superscript reverse transcriptase (Invitrogen, Carlsbad, Calif.). PCR primers (5′-[…]-3′ [Seq. ID No. 1] and 5′-[…]-3′ [Seq. ID No. 2]) encompassing the missing sequences in XPB-1s were used for the PCR amplification with AmpliTaq Gold polymerase (Applied Biosystem, Foster City, Calif.) with a probe set spanning the spliced-out region. PCR products were separated by electrophoresis on a 3% agarose gel (Agarose-1000, Invitrogen) and visualized them by ethidium bromide staining to assess the degree of X-box binding protein-1 unspliced (XBP-1u, ˜280 bp) and spliced (XBP-1s, ˜265 bp) mRNA.
Unspliced (XBP-1u, 285 bp) and spliced (XBP-1s, 259 bp) XBP-1 mRNA levels of treated NCI-H929 were determined by PCR amplification of total RNA that was reverse transcribed by SuperScript Reverse Transcriptase (Invitrogen, Carlsbad, Calif.). PCR primers (5′-[…]-3′ [Seq. ID No. 1] and 5′-[…]-3′ [Seq. ID No. 2]), which flank the 26-nt intron of XBP1 mRNA, were used for PCR amplification with Ex Taq polymerase (Takara Bio, Shiga, Japan).

NCI-H929 [2] = test: cells
Protocol: For cell survival assays, cells were plated in 96-well culture plates (BD Biosciences, San Jose, Calif.), 100,000 cells/well with 200 μl, of culture media. The effect of the drugs on cell survival was assessed, for example, by measuring 3-(4,5-dimethylthiazol-2-yl)-5-(3-carboxymethoxyphenyl)-2-(4-sulphophenyl)-2H-tetrazolium, inner salt (MTS) (Promega, Madison, Wis.) dye absorbance of viable cells by adding 40 μL of 5 mg/mL MTS to each well for the last 4 hours of drug exposure. Additional wells containing cells only (untreated control) or medium only (background medium control) were used as controls. Absorbance at 490 nm (A490) was measured using a spectrophotometer (Dynatech Laboratories, Chantilly, Va.). Viability was estimated according to the following formula: […]
Briefly, the cellular fraction affected (Fa) was calculated based on an MTS assay after exposing cells to the drugs alone or in combination at a given dose compared to untreated cells, using the formula: Fa=100−% Viable Cells. Fa values were entered into Calcusyn software (Biosoft, Ferguson, Mo. and Cambridge, United Kingdom) to obtain CI values. CI values <1.0 indicated a synergistic effect of the drugs used in combination. For Inhibitory Concentration, or IC, calculations, dose-effect curves for MAL3-101, MG-132, 17-AAG, and their combinations were used to interpolate the median inhibitory concentration that caused 30% (IC30), 50% (IC50), and 70% (IC70) reductions in the % viable cells compared to untreated cells.
Cells (1×10^5) were plated in 96-well microtiter plates (Costar, Cambridge, Mass.) in 100 μL, of growth medium and exposed for indicated periods to various concentrations of compounds or their combinations. Control cells were cultured in DMSO. All studies were performed in triplicate and repeated at least three times independently. Survival was measured by an MTS assay (Promega, Madison, Wis.) as per the manufacturer's directions. The absorbance (A450) ratio of treated to untreated cells, after the subtraction of background absorbance, was multiplied by 100 to obtain percent cell survival. Cell death was measured by trypan blue dye exclusion in identically plated cultures.
DMSO-treated cultures were compared to drug-treated cultures by Student's t tests or by Dunnett's post-hoc test following significant repeated-measures one-way analysis of variance. All tests were two-tailed, and statistical significance was set at P≦0.05. Isobologram analysis was performed to derive combination index (CI) values based upon the Chou-Talalay method using CalcuSyn software (Biosoft, Ferguson, Mo. and Cambridge, United Kingdom) as described in L. Catley, E. Weisberg, T. Kiziltepe, Y. T. Tai, T. Hideshima, P. Neri, P. Tassone, P. Atadja, D. Chauhan, N. C. Munshi, K. C. Anderson, Aggresome induction by proteasome inhibitor Bortezomib and {alpha}-tubulin hyperacetylation by tubulin deacetylase (TDAC) inhibitor LBH589 are synergistic in myeloma cells, Blood (2006), which is incorporated herein by reference.

BiP = test: Levels of ER lumenal chaperone BiP in NCI-H929; type: cell-based, human; settings: NCI-H929, data not shown
[3] = read-out: IC50 (reduction of % viable cells), single agent, NCI-H929, 40 h exposure, MTS assay, agent alone

Structure (SMILES) | induction of apoptosis at 18 h (NCI-H929 [1]) | XBP-1 mRNA splicing at early time points (XBP-1 mRNA splicing) | IC50 (NCI-H929 [2]; Homo sapiens, NCI-H929, 40 h, read-out: IC50 (reduction of % viable cells), single agent, NCI-H929, 40 h exposure, MTS assay, agent alone) | IC50 (NCI-H929 [2]; Homo sapiens, NCI-H929, 40 h, read-out: IC50 of MG-132 in the presence of MAL3-101, NCI-H929, 40 h, MTS, MAL3-101 and MG-132 at equal concentrations) | IC50 (NCI-H929 [2]; [3]) | levels of BiP (BiP) | apoptosis over time (NCI-H929 [1]; NCI-H929, 10 μM, FACS) | XBP-1 mRNA splicing at high concentration (XBP-1 mRNA splicing; NCI-H929, 30 μM, after 24 h of culture) | cytotoxicity compared among MM cell lines (NCI-H929 [2]; 10 μM, NCI-H929 versus RPMI-8226 and U266) | IC50 (NCI-H929 [2]; read-out: IC50 as stated in the detailed description, multiple myeloma cells, rounded statement of the description)
CC(C)C[C@@H](C=O)NC(=O)[C@H](CC(C)C)NC(=O)[C@H](CC(C)C)NC(=O)OCc1ccccc1 [MG-132, reference compound] (Cbz-Leu-Leu-Leu-aldehyde) | neither drug alone was effective in inducing apoptosis | no XBP-1 mRNA splicing was observed | 1000 nM | 10 nM | 1700 nM | did not change | – | – | – | –
CCCCCCN(C(=O)CCCCCN1C(=O)NC(c2ccc(-c3ccccc3)cc2)C(C(=O)OCc2ccccc2)=C1C)C(C(=O)NCCCC)c1ccc(OCC(=O)OC)c(C(=O)OC)c1 (centres unmarked) [MAL3-101] | neither drug alone was effective in inducing apoptosis | there does not appear to be an effect; also recorded: no XBP-1 mRNA splicing was observed | – | – | 8300 nM | did not change | time-dependent increase in apoptosis | minimal XBP-1 mRNA splicing occurred | most sensitive; also recorded: highest level of cytotoxicity | 10000 nM

Reference: US8754094B2, “Methods for heat shock protein dependent cancer treatment” (The Research Foundation of State University of New York, priority 2007, dated 2014)
